{"source": "patent US20030166290A1", "about": "“Low formaldehyde producing blood diluent” (priority 2002, published 2003)", "experiment": "Formaldehyde production in test blood diluents containing antimicrobial agents (EPA Method 8315A)", "assay_type": "physicochemical", "details": "when employed in the blood diluent of the invention", "protocol": "Diluent components into which the listed antimicrobials were added were:\nEach test diluent was assayed for formaldehyde production within about two weeks from time of production to determine if formaldehyde is produced. Different lots of the final diluent formulation were monitored for formaldehyde concentration over a year's time. […] This method entails derivitizing the diluent sample with 2,4-dinitrophenylhydrazine to convert the carbonyl groups of aldehydes present to the hydrazones. Each carbonyl compound present in the sample forms a separate hydrazone derivative and these individual derivatives are extracted from the diluent solution using an organic solvent. The individual hydrazone derivatives are separated and quantified by HPLC (High Performance Liquid Chromatography)."}
{"smiles": "O=[N+]([O-])C1(Br)COCOC1", "note": "[5-bromo-5-nitro-1,3-dioxane]", "values": [{"measurement": "formaldehyde produced or contained", "result": "≤ 1", "unit": "ppm"}]}
